Assay results: US4062948A, “Dihydromocimycin antibiotics” (Gist-Brocades N.V., priority 1970, dated 1977)
≈ marks a conversion by molar mass, not a printed value. Entries after “also recorded” stand apart in the source; their conditions may differ.

Legend:
[1] = test system: Streptomyces viridochromogenes; experiment: Liquid dilution tests; format: cell-based; conditions: read-out: Minimum inhibitory concentration
[2] = test system: Streptococcus zocepidemicus A2144; experiment: Agar dilution tests; format: cell-based; conditions: anaerobic culture, read-out: Minimum inhibitory concentration
[3] = growth and feed-conversion of animals being fattened; format: in vivo; conditions: low concentration in feed; chickens or pigs
Source text: Many properties of dihydromocimycin are similar to those of mocimycin.

[4] = test system: Bacillus subtilis 6346 D167; experiment: Liquid dilution tests; format: cell-based; conditions: read-out: Minimum inhibitory concentration
[5] = test system: Streptococcus haemolyticus A2182; experiment: Liquid dilution tests; format: cell-based; conditions: read-out: Minimum inhibitory concentration
Bacillus cereus TH 1 = experiment: Liquid dilution tests; format: cell-based; conditions: TH1, read-out: Minimum inhibitory concentration
[6] = test system: Streptococcus haemolyticus A266; experiment: Liquid dilution tests; format: cell-based; conditions: A266, read-out: Minimum inhibitory concentration
[7] = test system: Clostridium welchii A 738; experiment: microbe, parasite or virus in culture; format: cell-based; conditions: A738, 18 h, read-out: Minimum inhibitory concentration
[8] = test system: Listeria monocytogenes A2132; experiment: Agar dilution tests; format: cell-based; conditions: anaerobic culture, read-out: Minimum inhibitory concentration
[9] = test system: Salmonella typhimurium R172; experiment: Agar dilution tests; format: cell-based; conditions: Salmonella enterica, anaerobic culture, read-out: Minimum inhibitory concentration
[10] = test system: Clostridium septicum A2152; experiment: Agar dilution tests; format: cell-based; conditions: anaerobic culture, read-out: Minimum inhibitory concentration
[11] = test system: Listeria monocytogenes A2130; experiment: Agar dilution tests; format: cell-based; conditions: anaerobic culture, read-out: Minimum inhibitory concentration
[12] = test system: Bacillus subtilis ATCC 6633; experiment: Liquid dilution tests; format: cell-based; conditions: ATCC6633, read-out: Minimum inhibitory concentration
[13] = test system: Mycoplasma hyorhinus A2230; experiment: Liquid dilution tests; format: cell-based; conditions: A2230, read-out: Minimum inhibitory concentration
[14] = test system: Bacillus subtilis 220 D178; experiment: Liquid dilution tests; format: cell-based; conditions: read-out: Minimum inhibitory concentration
Bacillus subtilis TH 10 = experiment: Liquid dilution tests; format: cell-based; conditions: TH10, read-out: Minimum inhibitory concentration
R-Streptococcen A2148 = experiment: Agar dilution tests; format: cell-based; conditions: read-out: Minimum inhibitory concentration
Treponema spec. A2275 = experiment: Agar dilution tests; format: cell-based; conditions: anaerobic culture, read-out: Minimum inhibitory concentration
Solubility = format: physicochemical
Bacillus cereus D220 = experiment: Liquid dilution tests; format: cell-based; conditions: read-out: Minimum inhibitory concentration
[15] = test system: Bacillus subtilis ATCC 6051; experiment: Liquid dilution tests; format: cell-based; conditions: ATCC6051, read-out: Minimum inhibitory concentration
[16] = test system: Staphylococcus aureus A 2000; experiment: Agar dilution tests; format: cell-based; conditions: A2000, anaerobic culture, read-out: Minimum inhibitory concentration
[17] = test system: Brucella suis (smooth) A2126; experiment: microbe, parasite or virus in culture; format: cell-based; conditions: read-out: Minimum inhibitory concentration
rats = experiment: three-month oral toxicity in rats; format: in vivo; conditions: up to 0.1% in the diet, three months
Source text: The toxicity of the antibiotic has been studied in various animals.

[18] = test system: Bacillus mesenterium D169; experiment: Liquid dilution tests; format: cell-based; conditions: read-out: Minimum inhibitory concentration
[19] = test system: Pasteurella haemolytica A2136; experiment: Agar dilution tests; format: cell-based; conditions: Mannheimia haemolytica, anaerobic culture, read-out: Minimum inhibitory concentration
Bacillus cereus B569 = experiment: Liquid dilution tests; format: cell-based; conditions: read-out: Minimum inhibitory concentration
[20] = test system: Staphylococcus aureus A 2001; experiment: Agar dilution tests; format: cell-based; conditions: A2001, anaerobic culture, read-out: Minimum inhibitory concentration
[21] = test system: Bacillus cereus var. mycoides; experiment: microbe, parasite or virus in culture; format: cell-based; conditions: read-out: Minimum inhibitory concentration
[22] = test system: Clostridium perfringens A738; experiment: microbe, parasite or virus in culture; format: cell-based; conditions: A738, read-out: Minimum inhibitory concentration
[23] = test system: Diplococcus pneumoniae L54; experiment: Agar dilution tests; format: cell-based; conditions: Streptococcus pneumoniae, anaerobic culture, read-out: Minimum inhibitory concentration
Bacillus cereus D261 = experiment: Liquid dilution tests; format: cell-based; conditions: read-out: Minimum inhibitory concentration
Escherichia coli U20 = experiment: Agar dilution tests; format: cell-based; conditions: anaerobic culture, read-out: Minimum inhibitory concentration
Bacillus cereus D166 = experiment: Liquid dilution tests; format: cell-based; conditions: read-out: Minimum inhibitory concentration
[24] = test system: Bacillus thuringiensis W11; experiment: Liquid dilution tests; format: cell-based; conditions: read-out: Minimum inhibitory concentration
[25] = test system: Listeria monocytogenes A2131; experiment: Agar dilution tests; format: cell-based; conditions: anaerobic culture, read-out: Minimum inhibitory concentration
Treponema = experiment: treatment of pigs from a farm with pigs scour, Treponema-positive (Example VII); format: in vivo
Experimental: Pigs, from a farm where problems with pigs scour had existed for some time, were treated under the supervision of the local veterinary surgeon and the inspector of the Health Service Station. The pigs were divided into groups and treated for 4 days in the following manner.
Group 1: 66 pigs were treated with feed containing 100 ppm of tylosin;
Group 2: 34 pigs were treated with feed containing 25 ppm of dihydromocimycin;
Group 3: 40 pigs were treated with feed containing 50 ppm of dihydromocimycin; and
Group 4: 40 pigs were treated with feed containing 100 ppm of dihydromocimycin.
Before the treatment, all animals lost thin or very thin faeces. Samples thereof were investigated and found to be Treponema-positive, and Salmonella-negative. Sometimes worm eggs were found.

[26] = test system: microorganism causing Treponema dysentery; experiment: experiments against the microorganism causing Treponema dysentery

With `CC=CC=CC1OC(O)(C(CC)C(=O)NCC=CC=C(C)C(OC)C(C)C2OC(C=CC=CC=C(C)C(=O)c3c(O)cc[nH]c3=O)C(O)C2O)C(O)C(O)C1(C)C` (centres unmarked) [mocimycin] the MIC [1] was 2.5 µg/mL (≈ 3.14 µM), the MIC [2] was 6 µg/mL (≈ 7.53 µM) and the growth and feed-conversion [3] was “improves the growth and the feed-conversion markedly; also recorded: advantageous growth-promoting properties”. For the same compound, the MIC [4] was 1.2 µg/mL (≈ 1.51 µM), the MIC [5] was 0.25 µg/mL (≈ 0.314 µM) and the MIC (Bacillus cereus TH 1) was 1.8 µg/mL (≈ 2.26 µM). For the same compound, the MIC [6] was 0.45 µg/mL (≈ 0.565 µM), the MIC [7] was 10 µg/mL (≈ 12.5 µM) and the MIC [8] was 6 µg/mL (≈ 7.53 µM). For the same compound, the MIC [9] was greater than 100 µg/mL, the MIC [10] was 10 µg/mL (≈ 12.5 µM) and the MIC [11] was 6 µg/mL (≈ 7.53 µM). The MIC [12] was 100 µg/mL (≈ 125 µM), the MIC [13] was 1 µg/mL (≈ 1.25 µM) and the MIC [14] was 75 µg/mL (≈ 94.1 µM). For the same compound, the MIC (Bacillus subtilis TH 10) was 100 µg/mL (≈ 125 µM), the MIC (R-Streptococcen A2148) was 6 µg/mL (≈ 7.53 µM) and the MIC (Treponema spec. A2275) was 30 µg/mL (≈ 37.6 µM). The solubility (Solubility; carbon tetrachloride and benzene (mocimycin)) was “poor”, the solubility (Solubility; chloroform, methyl isobutyl ketone, butyl acetate, ethyl acetate, acetone, methanol and alkaline solutions) was “good” and the solubility (Solubility; diethyl ether, petroleum ether, water and acid solutions) was “insoluble”. The solubility (Solubility; pH 9) was “poorly soluble”, the MIC (Bacillus cereus D220) was 1.2 µg/mL (≈ 1.51 µM) and the MIC [15] was 100 µg/mL (≈ 125 µM). For the same compound, the MIC [16] was greater than 100 µg/mL, the MIC [17] was 0.75 µg/mL (≈ 0.941 µM) and the undesired pharmacological effect (rats) was “does not result in any undesired pharmacological effect”. The MIC [18] was 100 µg/mL (≈ 125 µM), the MIC [19] was 3 µg/mL (≈ 3.76 µM) and the MIC (Bacillus cereus B569) was 2.5 µg/mL (≈ 3.14 µM). It also gave an MIC [20] greater than 100 µg/mL, an MIC [21] of 1.2 µg/mL (≈ 1.51 µM) and an MIC [22] greater than 100 µg/mL. For the same compound, the MIC [23] was 1.5 µg/mL (≈ 1.88 µM), the MIC (Bacillus cereus D261) was 0.9 µg/mL (≈ 1.13 µM) and the MIC (Escherichia coli U20) was greater than 100 µg/mL. It also gave an MIC (Bacillus cereus D166) of 0.6 µg/mL (≈ 0.753 µM), an MIC [24] of 1.2 µg/mL (≈ 1.51 µM) and an MIC [25] of 6 µg/mL (≈ 7.53 µM).

In the case of `CC=CC=CC1OC(O)(C(CC)C(=O)NCC=CC=C(C)C(OC)C(C)C2OC(C=CC=CC=C(C)C(=O)C3=C(O)CCNC3=O)C(O)C2O)C(O)C(O)C1(C)C` (centres unmarked) [dihydromocimycin], the MIC [1] is reported as 0.9 µg/mL (≈ 1.13 µM), the MIC [2] is reported as 6 µg/mL (≈ 7.51 µM) and the “liveliness of treated animals” value (Treponema; 25-100 ppm in feed) is reported as “much more lively than before the treatment”. For the same compound, the “curing of Treponema dysentery, compared with tylosin” value (Treponema; 25 ppm dihydromocimycin vs 100 ppm tylosin) was “better than a dosage of 100 ppm of tylosin”, the time to cure (Treponema; dihydromocimycin 25 ppm in feed (group 2)) was “cured in periods lying between those of groups 1 and 4” and the time to cure (Treponema; dihydromocimycin 50 ppm in feed (group 3)) was “cured in periods lying between those of groups 1 and 4”. The faeces (Treponema; dihydromocimycin 100 ppm in feed, one day after the start of treatment) was “normal”, the aversion to feed (Treponema; feed containing dihydromocimycin) was “not averse to feed containing dihydromocimycin” and the growth and feed-conversion [3] was “does not show any improvement of the growth or feed-conversion; also recorded: does not show the aforesaid properties”. The MIC [4] was 0.9 µg/mL (≈ 1.13 µM), the MIC [5] was 0.12 µg/mL (≈ 0.15 µM) and the MIC (Bacillus cereus TH 1) was 1.2 µg/mL (≈ 1.5 µM). The MIC [6] was 0.45 µg/mL (≈ 0.563 µM), the MIC [8] was 6 µg/mL (≈ 7.51 µM) and the MIC [9] was greater than 100 µg/mL. For the same compound, the MIC [10] was 10 µg/mL (≈ 12.5 µM), the MIC [11] was 1.5 µg/mL (≈ 1.88 µM) and the MIC [12] was 50 µg/mL (≈ 62.6 µM). It also gave an MIC [13] of 0.3 µg/mL (≈ 0.375 µM), an MIC [14] of 75 µg/mL (≈ 93.9 µM) and an MIC (Bacillus subtilis TH 10) of 50 µg/mL (≈ 62.6 µM). For the same compound, the MIC (R-Streptococcen A2148) was 3 µg/mL (≈ 3.75 µM), the MIC (Treponema spec. A2275) was 10 µg/mL (≈ 12.5 µM) and the solubility (Solubility; carbon tetrachloride and benzene (dihydromocimycin)) was “moderate”. The solubility (Solubility; chloroform, methyl isobutyl ketone, ethyl acetate, butyl acetate, acetone, dioxan, methanol, ethanol, tetrahydrofuran, weakly alkaline aqueous solutions) was “good”, the solubility (Solubility; diethyl ether, water, weakly acid aqueous solutions, cyclohexane and petroleum ether) was “insoluble” and the MIC (Bacillus cereus D220) was 0.9 µg/mL (≈ 1.13 µM). For the same compound, the MIC [15] was 50 µg/mL (≈ 62.6 µM), the MIC [16] was greater than 100 µg/mL and the MIC [17] was 0.4 µg/mL (≈ 0.501 µM). It also gave an MIC [18] of 50 µg/mL (≈ 62.6 µM), an MIC [19] of 1.5 µg/mL (≈ 1.88 µM) and an MIC (Bacillus cereus B569) of 1.2 µg/mL (≈ 1.5 µM). For the same compound, the MIC [20] was greater than 100 µg/mL, the MIC [21] was 0.45 µg/mL (≈ 0.563 µM) and the “treatment of Treponema dysentery compared with tylosin and mocimycin” value [26] was “superior to tylosin (and also to mocimycin)”. The “activity against tylosin-resistant strains” value ([26]; tylosin-resistant strains) was “active against tylosin-resistant strains”, the MIC [22] was greater than 100 µg/mL and the MIC [23] was less than 0.75 µg/mL. It also gave an MIC (Bacillus cereus D261) of 0.6 µg/mL (≈ 0.751 µM), an MIC (Escherichia coli U20) of 100 µg/mL (≈ 125 µM) and an MIC (Bacillus cereus D166) of 0.6 µg/mL (≈ 0.751 µM). The MIC [24] was 0.9 µg/mL (≈ 1.13 µM) and the MIC [25] was 6 µg/mL (≈ 7.51 µM).
